# How the values were obtained:
# human NOD2 = biological target: T1, human NOD2 (Homo sapiens, UniProt Q9HC29); assay: HEK-Blue NOD2 NF-κB SEAP reporter assay (NOD2 agonistic activity); type: cell-based
# T1 construct: host or cells: HEK-Blue NOD2 cells (derived from HEK293)
# Experimental: The synthesized desmuramylpeptides were evaluated for their dose-dependent NOD2 activity using the commercially available HEK-Blue NOD2 reporter cell line. This cell line is derived from HEK293 cells by cotransfection of human NOD2 and an NF-κB-inducible secreted embryonic alkaline phosphatase (SEAP). Activation of NOD2 and subsequently of NF-κB leads to the expression and secretion of SEAP, the level of which can be quantified colorimetrically. […]
# two passages, 200 µg/mL Zeocin (Invivogen) was added to the medium every other passage to maintain selection pressure. The cells were incubated in a humidified atmosphere at 37 °C and 5% CO 2. […]
# Aldrich), and 100 µg/mL streptomycin (Sigma -Aldrich).
# The tested compounds were dissolved in DMSO and further di luted in culture medium to the desired final concentrations, such that the final DMSO concentration never exceeded 0.1%. […]
# 4.6 NOD1/NOD2-NF-kB reporter assay
# HEK-Blue NOD2 or NOD1 cells were seeded (25,000 cells/well) in 96 -well plates in 100 µL HEK-Blue detection medium (Invivogen, San Diego, CA, USA) and treated with compounds ( 2 µM for fixed […]
# the corresponding vehicle (0.1% DMSO). After 18 h of incubation (37 °C, 5% CO2), secreted embryonic alkaline phosphatase (SEAP) activity was determined spectrophotometrically as absorbance at 630 nm (BioTek Synergy microplate reader; Winooski, VT, USA). EC50 values were calculated using Prism software (version 9; GraphPad Software, CA, USA). The experiments were run in duplicates and repeated as at least three independent biological replicates. […]
# K562 cancer cells = assay: PBMC cytotoxicity against K562 cancer cells; type: cell-based
# Experimental: In addition, we also investigated the ability of 40, both alone and in combination with LPS and IFN-γ, to induce direct and nonspecific cytolytic activity of PBMCs against cancer cells. For this purpose, we used a functional cytotoxicity assay based on the coincubation of preactivated PBMCs and fluorescently labeled K562 cancer cells.[33] Among the heterogeneous subpopulations of PBMCs, natural killer (NK) cells and, to a lesser extent, monocytes represent the main effector cell types in this assay. NK cells play an essential role in tumor and viral immunosurveillance, both through direct cytolytic destruction of aberrant cells and by facilitating the recruitment and activation of other immune cells through the secretion of cytokines.[34] In addition to their well-established role in cancer immunotherapy, NK cells thus also provide an attractive target in the development of vaccine adjuvants, particularly when Th1 cellular immune responses are preferred.[35] Other cell populations, however, may contribute to the magnitude of NK cell-mediated responses via cytokine secretion. To account for the contribution of these accessory cells and to more accurately represent in vivo conditions, the entire PBMC population was used instead of isolated NK cells.
# Figure 3 2 and 40 synergize with LPS and IFN-γ to induce the cytotoxicity of PBMCs against K562 cancer cells. Following 18 h of stimulation of PBMCs with 2 (1 μM) or 40 (1 μM) in the presence or absence of LPS (1 μg/mL) and IFN-γ (200 U/mL) or the corresponding vehicle (0.1% DMSO; NT), K562 cells were added in a 40:1 effector to target cell ratio. Cytotoxicity was determined after 4 h of coincubation. IL-2 (200 U/mL) was used as the positive control. Data are shown as relative activities to vehicle-treated control (0.1% DMSO) and are the means ± SEMs of duplicates of two independent experiments. Statistical significance was determined by one-way ANOVA followed by Dunnet’s multiple-comparisons test; **, p < 0.01, ***, p < 0.001. […]
# 4.8 Peripheral blood mononuclear cell cytotoxicity
# The PBMC cytotoxicity assays using K562 cells were performed as described previously, with some modifications.2 PBMCs were seeded (400,000 cells/well) in duplicates in 96 -well U-bottom plates and treated with 2 (1 µM) or 40 (1 µM), in the presence or absence of LPS (1 µg/mL) or IFN-γ (200 U/mL), IL-2 (200 U/mL), or the corresponding vehicle (0.1% DMSO) for 18 h. K562 were stained with carboxyfluorescein succinimidyl ester (CFSE, Invitrogen, Carlsbad, CA, USA), washed twice with complete medium, and added (10,000 cells/well) to the pre-treated PBMCs for a final effector cell to target tumor cell ratio of 40:1. After a 4 h coincubation (37 °C, 5% CO2), cells were stained with Sytox Blue dead cell stain (Invitrogen) and analyzed using an Attune NxT flow cytometer (Thermo Fisher Scientific, Waltham, MA, USA) and FlowJo software (Tree Star, Inc., Ashland, OR, USA). Cells that were positive for both CFSE and Sytox Blue were defined as dead K562 cells. PBMCs alone and CFSE-labeled K562 cells alone were also treated with the compounds at the same concentrations and stained with Sytox Blue to exclude any direct cytotoxicity of the compounds towards the PBMCs and cancer cells.
# 4.9 Cytokine release from peripheral blood mononuclear cells […]
# T1 sequence (Q9HC29 whole entry): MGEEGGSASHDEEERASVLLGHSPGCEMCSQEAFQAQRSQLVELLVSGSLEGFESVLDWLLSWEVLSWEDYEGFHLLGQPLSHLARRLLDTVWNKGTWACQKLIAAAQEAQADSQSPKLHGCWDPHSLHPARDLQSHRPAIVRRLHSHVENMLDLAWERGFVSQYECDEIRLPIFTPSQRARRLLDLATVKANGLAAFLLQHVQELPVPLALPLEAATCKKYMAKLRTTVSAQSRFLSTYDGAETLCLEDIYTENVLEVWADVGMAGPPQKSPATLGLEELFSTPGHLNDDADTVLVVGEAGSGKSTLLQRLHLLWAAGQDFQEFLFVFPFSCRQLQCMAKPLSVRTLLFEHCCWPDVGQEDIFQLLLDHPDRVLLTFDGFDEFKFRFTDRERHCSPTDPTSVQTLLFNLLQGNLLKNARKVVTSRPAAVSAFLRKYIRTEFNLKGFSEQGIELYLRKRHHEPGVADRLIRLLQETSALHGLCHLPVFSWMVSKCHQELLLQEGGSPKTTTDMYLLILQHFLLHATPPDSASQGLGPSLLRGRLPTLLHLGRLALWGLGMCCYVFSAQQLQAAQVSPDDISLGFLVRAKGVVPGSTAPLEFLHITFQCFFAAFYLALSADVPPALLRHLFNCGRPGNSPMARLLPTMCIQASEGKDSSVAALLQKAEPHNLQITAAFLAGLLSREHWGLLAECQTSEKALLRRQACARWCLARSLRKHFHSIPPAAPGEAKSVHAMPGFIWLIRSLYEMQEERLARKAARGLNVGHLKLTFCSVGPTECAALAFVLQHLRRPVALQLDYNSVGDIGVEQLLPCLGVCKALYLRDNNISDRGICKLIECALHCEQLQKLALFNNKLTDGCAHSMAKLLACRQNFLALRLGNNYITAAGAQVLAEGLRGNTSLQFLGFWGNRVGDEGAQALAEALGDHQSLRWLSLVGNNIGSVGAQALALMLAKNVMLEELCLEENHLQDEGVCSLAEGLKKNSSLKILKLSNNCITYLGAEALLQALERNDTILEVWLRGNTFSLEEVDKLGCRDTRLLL
structure (smiles),measurement,setting,value
CCOC(=O)CC[C@@H](NC(=O)[C@@H](NC(=O)CNC(=O)/C=C/c1ccc(OC(=O)CC23CC4CC(CC(C4)C2)C3)c(OC)c1)C(C)C)C(=O)OCC [Compound 40],EC50,"human NOD2; HEK-Blue NOD2 cells, 18 h, means ± SEMs of at least three independent experiments, 8 or 16 concentrations (0.1 nM to 20 μM)",4.5 ± 1.1 nM
same,improvement of activity relative to 1,human NOD2; NOD2 EC50 versus compound 1,20 factor
same,"LPS- and IFN-γ-induced cytotoxic activity of PBMCs against K562, costimulation","K562 cancer cells; 1 μM + LPS 1 μg/mL or IFN-γ 200 U/mL, 18 h, 40:1, 4 h",significantly enhanced
same,"cytotoxic activity of PBMCs with costimuli, compared to 2",K562 cancer cells; 1 μM + LPS or IFN-γ,slightly stronger activity
same,increase in the ratio of dead K562 cells,"K562 cancer cells; PBMCs stimulated 18 h with 1 μM compound alone, 40:1 effector to target ratio, 4 h coincubation, relative to vehicle",1.28 fold
same,apoptosis in K562 cells in the absence of PBMCs,"K562 cancer cells; cotreatment with 40 and IFN-γ, data not shown",did not induce apoptosis

# Source: article PMC9377006, “Discovery of Desmuramylpeptide NOD2 Agonists with Single-Digit Nanomolar Potency” (ACS Medicinal Chemistry Letters, 2022)
